Where “and” joins values, the source holds several entries; their conditions need not be identical. Equal values may be shown once. Inconclusive results are not listed.

The test system of the assay is BDF1 mice, colon carcinoma 38 sc, T/C %. As to the kind of experiment: NCI In Vivo Anticancer Drug Screen. Data for tumor model Colon Carcinoma 38 (subcutaneous) in B6D2F1 (BDF1) mice. The method in brief: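 Transplantable tumor in mice; compound-treated vs vehicle-dosed controls. Measured survival or tumor size; value = T ÷ C.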
[1] abbreviates: endpoint: median tumor weight (est.), dose: 100.0 mg/kg/injection, schedule: Q07DX002 (ip), vehicle: saline with Tween-80, higher = larger tumour.
[2] abbreviates: endpoint: median tumor weight (est.), dose: 200.0 mg/kg/injection, schedule: Q07DX002 (ip), vehicle: saline with Tween-80, higher = larger tumour.
The mark [3] stands for this setting: endpoint: median tumor weight (est.), dose: 25.0 mg/kg/injection, schedule: Q07DX002 (ip), vehicle: saline with Tween-80, higher = larger tumour.
Setting [4] is: endpoint: median tumor weight (est.), dose: 50.0 mg/kg/injection, schedule: Q07DX002 (ip), vehicle: saline with Tween-80, higher = larger tumour.
The mark [5] stands for this setting: endpoint: median tumor weight (est.), dose: 400.0 mg/kg/injection, schedule: Q07DX002 (ip), vehicle: saline with Tween-80, higher = larger tumour.
The mark [6] stands for this setting: endpoint: median tumor weight (est.), dose: 100.0 mg/kg/injection, schedule: Q07DX002 (ip), vehicle: saline, higher = larger tumour.
Where [7] appears, read: endpoint: median tumor weight (est.), dose: 200.0 mg/kg/injection, schedule: Q07DX002 (ip), vehicle: saline, higher = larger tumour.
Setting [8] is: endpoint: median tumor weight (est.), dose: 400.0 mg/kg/injection, schedule: Q07DX002 (ip), vehicle: saline, higher = larger tumour.

Take `O=C1c2ccccc2C(=O)c2c1cn1c2Cc2ccccc2C1`: the T/C by setting is: (endpoint: median tumor weight (est.), dose: 5.0 mg/kg/injection, schedule: Q01DX005 (iv), vehicle: other, higher = larger tumour) 36 % of control; (endpoint: median tumor weight (est.), dose: 10.0 mg/kg/injection, schedule: Q01DX005 (iv), vehicle: other, higher = larger tumour) 36 % of control; (endpoint: median tumor weight (est.), dose: 18.0 mg/kg/injection, schedule: Q07DX002 (ip), vehicle: Klucel (hydroxypropylcellulose) (HPC), higher = larger tumour) 219 % of control; (endpoint: median tumor weight (est.), dose: 18.75 mg/kg/injection, schedule: Q07DX002 (ip), vehicle: Klucel (hydroxypropylcellulose) (HPC), higher = larger tumour) 63 % of control; (endpoint: median tumor weight (est.), dose: 20.0 mg/kg/injection, schedule: Q01DX005 (iv), vehicle: other, higher = larger tumour) 36 % of control; (endpoint: median tumor weight (est.), dose: 37.0 mg/kg/injection, schedule: Q07DX002 (ip), vehicle: Klucel (hydroxypropylcellulose) (HPC), higher = larger tumour) 89 % of control. Moreover, the T/C is 63 % of control (endpoint: median tumor weight (est.), dose: 37.5 mg/kg/injection, schedule: Q07DX002 (ip), vehicle: Klucel (hydroxypropylcellulose) (HPC), higher = larger tumour); 23 % of control (endpoint: median tumor weight (est.), dose: 40.0 mg/kg/injection, schedule: Q01DX005 (iv), vehicle: other, higher = larger tumour); 38 % of control and 41 % of control and 59 % of control (endpoint: median tumor weight (est.), dose: 75.0 mg/kg/injection, schedule: Q07DX002 (ip), vehicle: Klucel (hydroxypropylcellulose) (HPC), higher = larger tumour); 95 % of control (endpoint: median tumor weight (est.), dose: 75.0 mg/kg/injection, schedule: Q07DX002 (iv), vehicle: other, higher = larger tumour); 74 % of control (endpoint: median tumor weight (est.), dose: 100.0 mg/kg/injection, schedule: Q07DX002 (ip), vehicle: other, higher = larger tumour); 63 % of control under setting [1]. The T/C is, setting by setting: (endpoint: median tumor weight (est.), dose: 100.0 mg/kg/injection, schedule: Q07DX002 (iv), vehicle: other, higher = larger tumour) 120 % of control; (endpoint: median tumor weight (est.), dose: 150.0 mg/kg/injection, schedule: Q07DX002 (ip), vehicle: other, higher = larger tumour) 41 % of control; (endpoint: median tumor weight (est.), dose: 200.0 mg/kg/injection, schedule: Q07DX002 (ip), vehicle: other, higher = larger tumour) 41 % of control; under setting [2], 61 % of control; (endpoint: median tumor weight (est.), dose: 300.0 mg/kg/injection, schedule: Q07DX002 (ip), vehicle: Klucel (hydroxypropylcellulose) (HPC), higher = larger tumour) 8 % of control and 13 % of control.
With `COC(=Nc1ccccc1)SSC(C)C`, the T/C under setting [3] was 99 % of control; the T/C under setting [4] is 84 % of control; the T/C under setting [1] is 88 % of control; the T/C under setting [2] is 100 % of control; the T/C under setting [5] is 96 % of control.
With `O=c1ncccn1[C@@H]1O[C@H](CO)[C@H](O)C1O` (stereo partly drawn), the T/C was 61 % of control and 82 % of control (endpoint: median tumor weight (est.), dose: 50.0 mg/kg/injection, schedule: Q07DX002 (ip), vehicle: saline, higher = larger tumour); 65 % of control and 75 % of control under setting [6]; 66 % of control and 84 % of control under setting [7]; 62 % of control and 66 % of control under setting [8]; 67 % of control and 74 % of control (endpoint: median tumor weight (est.), dose: 800.0 mg/kg/injection, schedule: Q07DX002 (ip), vehicle: saline, higher = larger tumour).
Take `CC1(C)COCN1COC1CCCCC1`: the T/C by setting is: (endpoint: median tumor weight (est.), dose: 25.0 mg/kg/injection, schedule: Q07DX002 (ip), vehicle: suspension in saline, higher = larger tumour) 84 % of control; (endpoint: median tumor weight (est.), dose: 50.0 mg/kg/injection, schedule: Q07DX002 (ip), vehicle: suspension in saline, higher = larger tumour) 93 % of control; (endpoint: median tumor weight (est.), dose: 100.0 mg/kg/injection, schedule: Q07DX002 (ip), vehicle: suspension in saline, higher = larger tumour) 97 % of control; (endpoint: median tumor weight (est.), dose: 200.0 mg/kg/injection, schedule: Q07DX002 (ip), vehicle: suspension in saline, higher = larger tumour) 64 % of control.
On to `Cc1cc(=O)n2c3c(c4c(cc13)c(CN(C)C)cc(=O)n4C)OC2`, for which the T/C is 73 % of control under setting [3], 56 % of control under setting [4] and 45 % of control under setting [1].
On to `C=C1CC2(OC1=O)C(=O)N(C)c1ccc(I)cc12` (stereo not drawn), for which the T/C (endpoint: median tumor weight (est.), dose: 1.81 mg/kg/injection, schedule: Q07DX002 (ip), vehicle: suspension in saline, higher = larger tumour) was 69 % of control; the T/C (endpoint: median tumor weight (est.), dose: 3.62 mg/kg/injection, schedule: Q07DX002 (ip), vehicle: suspension in saline, higher = larger tumour) is 114 % of control; the T/C (endpoint: median tumor weight (est.), dose: 7.25 mg/kg/injection, schedule: Q07DX002 (ip), vehicle: suspension in saline, higher = larger tumour) is 120 % of control; the T/C (endpoint: median tumor weight (est.), dose: 14.5 mg/kg/injection, schedule: Q07DX002 (ip), vehicle: suspension in saline, higher = larger tumour) was 63 % of control; the T/C (endpoint: median tumor weight (est.), dose: 25.0 mg/kg/injection, schedule: Q07DX002 (ip), vehicle: saline, higher = larger tumour) was 93 % of control; the T/C (endpoint: median tumor weight (est.), dose: 29.0 mg/kg/injection, schedule: Q07DX002 (ip), vehicle: suspension in saline, higher = larger tumour) was 107 % of control. In addition, the T/C reads like this: (endpoint: median tumor weight (est.), dose: 58.0 mg/kg/injection, schedule: Q07DX002 (ip), vehicle: suspension in saline, higher = larger tumour) 111 % of control; under setting [7], 89 % of control; under setting [8], 108 % of control and 121 % of control.
In the case of `CCCCCCCCCCCCCCCCCC(=O)OCC(=O)OCC(=O)[C@]1(O)Cc2c(O)c3c(c(O)c2[C@@H](OC2CC(N)C(O)C(C)O2)C1)C(=O)c1c(OC)cccc1C3=O` (stereo partly drawn), the T/C reads like this: (endpoint: median survival time, dose: 11.5 mg/kg/injection, schedule: Q07DX002 (iv), vehicle: saline, higher = longer survival) 111 % of control; (endpoint: median tumor weight (est.), dose: 1.69 mg/kg/injection, schedule: Q07DX002 (ip), vehicle: saline with Tween-80, higher = larger tumour) 70 % of control; (endpoint: median tumor weight (est.), dose: 3.38 mg/kg/injection, schedule: Q07DX002 (ip), vehicle: saline with Tween-80, higher = larger tumour) 93 % of control; (endpoint: median tumor weight (est.), dose: 6.75 mg/kg/injection, schedule: Q07DX002 (ip), vehicle: saline with Tween-80, higher = larger tumour) 79 % of control and 89 % of control and 97 % of control; (endpoint: median tumor weight (est.), dose: 27.0 mg/kg/injection, schedule: Q07DX002 (ip), vehicle: saline with Tween-80, higher = larger tumour) 18 % of control and 37 % of control.
On to `Oc1cc2c3c(c1)c1cc4c(cc1c[n+]3CC2)OCO4`, for which the T/C is, setting by setting: (endpoint: median tumor weight (est.), dose: 3.12 mg/kg/injection, schedule: Q07DX002 (ip), vehicle: water, higher = larger tumour) 102 % of control; (endpoint: median tumor weight (est.), dose: 6.25 mg/kg/injection, schedule: Q07DX002 (ip), vehicle: water, higher = larger tumour) 77 % of control and 95 % of control; (endpoint: median tumor weight (est.), dose: 25.0 mg/kg/injection, schedule: Q07DX002 (ip), vehicle: water, higher = larger tumour) 71 % of control; (endpoint: median tumor weight (est.), dose: 50.0 mg/kg/injection, schedule: Q07DX002 (ip), vehicle: water, higher = larger tumour) 67 % of control and 71 % of control.
With `COCC(O)Cn1ccnc1[N+](=O)[O-]` (stereo not drawn), the T/C runs as follows: (endpoint: median tumor weight (est.), dose: 12.5 mg/kg/injection, schedule: Q07DX003 (ip), vehicle: water, higher = larger tumour) 85 % of control; (endpoint: median tumor weight (est.), dose: 25.0 mg/kg/injection, schedule: Q07DX003 (ip), vehicle: water, higher = larger tumour) 90 % of control; (endpoint: median tumor weight (est.), dose: 50.0 mg/kg/injection, schedule: Q07DX003 (ip), vehicle: water, higher = larger tumour) 100 % of control; (endpoint: median tumor weight (est.), dose: 100.0 mg/kg/injection, schedule: Q07DX003 (ip), vehicle: water, higher = larger tumour) 118 % of control; (endpoint: median tumor weight (est.), dose: 200.0 mg/kg/injection, schedule: Q07DX003 (ip), vehicle: water, higher = larger tumour) 72 % of control; (endpoint: median tumor weight (est.), dose: 400.0 mg/kg/injection, schedule: Q07DX003 (ip), vehicle: water, higher = larger tumour) 86 % of control.
As for `CCCCNC(C)C1(O)Cc2c(O)c3c(c(O)c2C(OC2CC(N)C(O)C(C)O2)C1)C(=O)c1c(OC)cccc1C3=O` (stereo not drawn), the T/C runs as follows: (endpoint: median tumor weight (est.), dose: 40.0 mg/kg/injection, schedule: Q07DX002 (ip), vehicle: saline, higher = larger tumour) 95 % of control; (endpoint: median tumor weight (est.), dose: 80.0 mg/kg/injection, schedule: Q07DX002 (ip), vehicle: saline, higher = larger tumour) 101 % of control; (endpoint: median tumor weight (est.), dose: 160.0 mg/kg/injection, schedule: Q07DX002 (ip), vehicle: saline, higher = larger tumour) 116 % of control; (endpoint: median tumor weight (est.), dose: 320.0 mg/kg/injection, schedule: Q07DX002 (ip), vehicle: saline, higher = larger tumour) 47 % of control.
Consider `O=C(Nc1ccc(Cl)c(Cl)c1)Nc1c(Oc2ccc(Cl)c(Cl)c2)ccc(Cl)c1S(=O)(=O)O`, for which the T/C (endpoint: median tumor weight (est.), dose: 6.25 mg/kg/injection, schedule: Q07DX002 (ip), vehicle: Klucel (hydroxypropylcellulose) (HPC), higher = larger tumour) is 167 % of control; the T/C (endpoint: median tumor weight (est.), dose: 12.5 mg/kg/injection, schedule: Q07DX002 (ip), vehicle: Klucel (hydroxypropylcellulose) (HPC), higher = larger tumour) was 103 % of control; the T/C (endpoint: median tumor weight (est.), dose: 100.0 mg/kg/injection, schedule: Q07DX002 (ip), vehicle: Klucel (hydroxypropylcellulose) (HPC), higher = larger tumour) is 119 % of control; the T/C (endpoint: median tumor weight (est.), dose: 200.0 mg/kg/injection, schedule: Q07DX002 (ip), vehicle: Klucel (hydroxypropylcellulose) (HPC), higher = larger tumour) was 66 % of control.
Turning to `CC(C)NCC(O)COc1ccc(O)c(O)c1` (stereo not drawn), the T/C runs as follows: under setting [6], 121 % of control; under setting [7], 93 % of control.
Consider `O=C1OCC2(C(=O)O)C(=O)OCC12` (stereo not drawn), for which the T/C (endpoint: median tumor weight (est.), dose: 3.12 mg/kg/injection, schedule: Q07DX002 (ip), vehicle: saline with Tween-80, higher = larger tumour) was 124 % of control; the T/C (endpoint: median tumor weight (est.), dose: 6.25 mg/kg/injection, schedule: Q07DX002 (ip), vehicle: saline with Tween-80, higher = larger tumour) is 87 % of control; the T/C under setting [3] is 70 % of control and 86 % of control; the T/C under setting [4] was 109 % of control; the T/C under setting [5] is 158 % of control.

The record behind these values is PubChem BioAssay AID212 (DTP/NCI, 2004).
